# Like-named read-outs stand apart in the source and are kept apart here.
# T1: recombinant avian cytosolic HMG-CoA synthase (wild type, alanine replacing proline at residue 2; SEQ ID NO:2) expressed in E. coli (Gallus gallus, UniProt P23228, P2A)
# T1 construct: Isolation of full length cDNA encoding avian HMG-CoA synthase from a λgt11 library has been reported; made in house; host or cells: E. coli BL21(DE3), plasmid pACS (pET-3d)
# T1 sequence (P23228 2-522 P2A limits assumed): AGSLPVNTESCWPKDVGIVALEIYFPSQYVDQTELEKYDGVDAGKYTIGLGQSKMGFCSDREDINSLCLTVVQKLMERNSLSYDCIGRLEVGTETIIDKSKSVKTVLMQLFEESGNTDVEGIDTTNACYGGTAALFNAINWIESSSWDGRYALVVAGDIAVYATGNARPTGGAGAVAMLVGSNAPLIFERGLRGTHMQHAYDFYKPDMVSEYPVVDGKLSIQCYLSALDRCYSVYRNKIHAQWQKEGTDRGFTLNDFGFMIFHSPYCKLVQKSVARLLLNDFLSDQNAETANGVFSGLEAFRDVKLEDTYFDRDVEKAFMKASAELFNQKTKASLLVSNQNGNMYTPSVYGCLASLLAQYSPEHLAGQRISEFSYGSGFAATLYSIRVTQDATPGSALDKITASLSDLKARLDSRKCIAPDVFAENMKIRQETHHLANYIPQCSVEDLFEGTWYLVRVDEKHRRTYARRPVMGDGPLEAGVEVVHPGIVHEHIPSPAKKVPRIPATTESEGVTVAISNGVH
# B1: recombinant avian cytosolic HMG-CoA synthase (wild type, alanine replacing proline at residue 2; SEQ ID NO:2) expressed in E. coli (Gallus gallus; P2A) (protein)
# chain: T1 sequence (P23228 2-522 P2A limits assumed)
# What was measured:
# [1] = target: T1, recombinant avian cytosolic HMG-CoA synthase (wild type, alanine replacing proline at residue 2; SEQ ID NO:2) expressed in E. coli; assay: R.CoA binding by EPR (Scatchard plot); parameters: species or system avian (chicken); settings: 50 mM sodium phosphate pH 7.0, ambient temperature
# Description: Measurement of R.CoA Binding by EPR. Conventional X-band EPR spectra were recorded using a Varian Century-Line 9-GHz spectrometer. The samples contained variable concentrations of HMG-CoA synthase sites (0-930 μM) in 50 mM sodium phosphate buffer, pH 7.0, and 50 or 150 μM R.CoA. R.CoA bound to HMG-CoA synthase was calculated by comparing the amplitudes of high, center, or low-field lines of sample spectra to the corresponding lines observed with a solution containing an equal concentration of R.CoA in buffer. The data were analyzed (Miziorko et al., (1979) Biochemistry 18, 399-403) by Scatchard plot using linear regression analysis. The spectra were recorded at ambient temperature with a modulation amplitude of 1 G, modulation frequency of 100 KHz and microwave power 5 mW. Field sweep was 100 G and time constant was 0.5 sec. The EPR spectrum of bound R.CoA was obtained at 5 G modulation amplitude and variable gain. Rotational correlation time of the bound spin label was determined using a spectral simulation algorithm (Freed, (1976) Spin Labeling: Theory and Applications (L. Berliner, ed.) 1, 53-132; Schneider, et al. (1989) Biological Magnetic Resonance 8, 1-76).
# [2] = tested on: native avian liver HMG-CoA synthase (liver enzyme); settings: read-out: Km AcCoA (Overall Rxn.), apparent value, in presence of 20 μM acetoacetylCoA; cited from earlier work
# [3] = tested on: native avian liver HMG-CoA synthase (liver enzyme); settings: read-out: Km AcCoA (Hydrolase Rxn.), absence of acetoacetyl-CoA; cited from earlier work
# [4] = substrate: CC(=O)SCCNC(=O)CCNC(=O)[C@H](O)C(C)(C)COP(=O)(O)OP(=O)(O)OC[C@H]1O[C@@H](n2cnc3c(N)ncnc32)[C@H](O)[C@@H]1OP(=O)(O)O; assay: purified protein, by the assay type; settings: other: recombinant enzyme
molecule,measurement,setting,value
CC(C)(COP(=O)(O)OP(=O)(O)OC[C@H]1O[C@@H](n2cnc3c(N)ncnc32)[C@H](O)[C@@H]1OP(=O)(O)O)[C@@H](O)C(=O)NCCC(=O)NCCSC(=O)C1CC(C)(C)N([O])C1(C)C (some centres unmarked) [R.CoA],Kd,[1],102 µM
"CC(=O)SCCNC(=O)CCNC(=O)[C@H](O)C(C)(C)COP(=O)(O)OP(=O)(O)OC[C@H]1O[C@@H](n2cnc3c(N)ncnc32)[C@H](O)[C@@H]1OP(=O)(O)O [AcCoA, acetyl-CoA]",Km,[2],300 µM
same,Km,[3],14 µM
B1,Km,"[4]; absence of acetoacetyl-CoA, pH 8.0, 30° C., pH 8.0",12 µM
same,Km,"[4]; apparent value, in presence of 20 μM acetoacetylCoA, 30° C., pH 8.2, pH 8.2",270 µM
